Source: patent US20040127549A1, “Cyclic 2-carbonylaminoketones as inhibitors of cruzipain and other cysteine proteases” (priority 2001, published 2004)
pKi: −log10 of the molar value.

Experiments:
Cruzipain = molecular target: T1, Cruzipain (Trypanosoma cruzi, UniProt P25779); assay: Trypanosoma cruzi cruzipain peptidase activity assay (Ki); type: biochemical; details: wild-type cruzipain, pH 6.75, 25±1° C.
T1 construct: Wild-type cruzipain, derived from Trypanosoma cruzi Dm28 epimastigotes, was obtained from Dr. Julio Scharfstein; tissue Dr. Julio Scharfstein (Instituto de Biofisica Carlos Chagas Filho, Universidade Federal do Rio de Janeiro); host or cells: Trypanosoma cruzi Dm28 epimastigotes
Procedure: (§1) Assay protocols were based on literature precedent (Tablel; Barrett, A. J., Rawlings, N. D. and Woessner, J. F., 1998, Handbook of Proteolytic Enzymes, Academic Press, London and references therein) and modified as required to suit local assay protocols. Enzyme was added as required to initiate the reaction and the activity, as judged by the change in fluorescence upon conversion of substrate to product, was monitored over time. All assays were carried out at 25±1° C.
Wild-type cruzipain, derived from Trypanosoma cruzi Dm28 epimastigotes, was obtained from Dr. Julio Scharfstein (Instituto de Biofisica Carlos Chagas Filho, Universidade Federal do R10 de Janeiro, R10 de Janeiro, Brazil). Activity assays were carried out in 100 mM sodium phosphate, pH 6.75 containing 1 mM EDTA and 10 mM L-cysteine using 2.5 nM enzyme. Ac-Phe-Arg-AMC (KM^app≈12 1M) and D-Val-Leu-Lys-AMC (KM^app≈4 1M) were used as the substrates. Routinely, Ac-FR-AMC was used at a concentration equivalent to KM^app and D-Val-Leu-Lys-AMC was used at a concentration of 25 μM. The rate of conversion of substrate to product was derived from the slope of the increase in fluorescence monitored continuously over time.
(§2) The apparent inhibition constant (Ki) for each compound was determined on the basis that inhibition was reversible and occurred by a pure-competitive mechanism. The Ki values were calculated, from the dependence of enzyme activity as a function of inhibitor concentration, by direct regression analysis (Prism v 3.02) using Equation 2 (Cornish-Bowden, A., 1995.). [formula] […]
(§3) In situations where the apparent dissociation constant (Ki^app) approached the enzyme concentrations, the Ki^app values were calculated using a quadratic solution in the form described by Equation 3 (Morrison, J. F. Trends Biochem. Sci., 7, 102-105, 1982; Morrison, J. F. Biochim. Biophys. Acta, 185, 269-286, 1969; Stone, S.R. and Hofsteenge, J. Biochemistry, 25, 4622-4628, 1986). […]

Bovine Cathepsin S = molecular target: T2, Bovine Cathepsin S (Bos taurus, UniProt P25326); assay: Cathepsin peptidase activity assay (Ki), bovine cathepsin S; type: biochemical; details: pH 6.5, 25±1° C.
T2 construct: purchased CN Biosciences
Procedure: as §1
(§4) Bovine cathepsin S, human cathepsin L, human cathepsin H and human cathepsin B were obtained from CN Biosciences. Recombinant human cathepsin S, human cathepsin K and human cathepsin X were obtained from Dr. Boris Turk (Josef Stefan Institute, Ljubljana, Slovenia). Unless otherwise stated, all peptidase activity assays were carried out in 10 mM bis-tris-propane (BTP), pH 6.5 containing 1 mM EDTA, 5 mM 2-mercaptoethanol and 1 mM CaCl2. Human cathepsin H activity assays were carried out in 10 mM BTP pH 6.5, 142 MM NaCl2 1 mM CaCl2, 1 mM EDTA, 1 mM DTr, 0.035 mM Zwittergent 3-16. […] The rate of conversion of substrate to product was derived from the slope of the increase in fluorescence monitored continuously over time.
as §2, with “1995.).” for “1995.). [formula]”
as §3

Human Cathepsin L = molecular target: T3, Human Cathepsin L (Homo sapiens, UniProt P07711); assay: Cathepsin peptidase activity assay (Ki), human cathepsin L; type: biochemical; details: pH 6.5, 25±1° C.
T3 construct: purchased CN Biosciences
Procedure: as §1, §4
as §2, with “1995.).” for “1995.). [formula]”
as §3

Human Cathepsin K = molecular target: T4, Human Cathepsin K (Homo sapiens, UniProt P43235); assay: Cathepsin peptidase activity assay (Ki), human cathepsin K; type: biochemical; details: pH 5.5, 25±1° C.
T4 construct: purchased Dr. Boris Turk (Josef Stefan Institute, Ljubljana, Slovenia)
T4 sequence (P43235 115-329): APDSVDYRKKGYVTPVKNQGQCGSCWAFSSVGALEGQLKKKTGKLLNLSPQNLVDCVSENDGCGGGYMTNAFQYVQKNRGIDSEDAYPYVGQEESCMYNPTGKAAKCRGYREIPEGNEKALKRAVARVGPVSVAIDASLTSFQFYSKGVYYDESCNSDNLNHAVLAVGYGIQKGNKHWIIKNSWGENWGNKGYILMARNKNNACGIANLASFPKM
Procedure: as §1, §4
as §2, with “1995.).” for “1995.). [formula]”
as §3

[1] = test system: Trypanosoma cruzi-infected mammalian cell cultures; details: addition to infected mammalian cell cultures; cited from earlier work
[2] = test system: Trypanosoma cruzi infection; details: acute phase of infection; cited from earlier work

T2 sequence (P25326 115-331): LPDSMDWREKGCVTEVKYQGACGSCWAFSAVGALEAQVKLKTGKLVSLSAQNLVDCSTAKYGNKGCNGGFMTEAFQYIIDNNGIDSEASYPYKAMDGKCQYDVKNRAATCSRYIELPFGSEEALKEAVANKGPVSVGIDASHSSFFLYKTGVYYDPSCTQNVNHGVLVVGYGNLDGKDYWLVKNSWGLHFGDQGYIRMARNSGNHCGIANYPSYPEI
T1 sequence (P25779 123-467): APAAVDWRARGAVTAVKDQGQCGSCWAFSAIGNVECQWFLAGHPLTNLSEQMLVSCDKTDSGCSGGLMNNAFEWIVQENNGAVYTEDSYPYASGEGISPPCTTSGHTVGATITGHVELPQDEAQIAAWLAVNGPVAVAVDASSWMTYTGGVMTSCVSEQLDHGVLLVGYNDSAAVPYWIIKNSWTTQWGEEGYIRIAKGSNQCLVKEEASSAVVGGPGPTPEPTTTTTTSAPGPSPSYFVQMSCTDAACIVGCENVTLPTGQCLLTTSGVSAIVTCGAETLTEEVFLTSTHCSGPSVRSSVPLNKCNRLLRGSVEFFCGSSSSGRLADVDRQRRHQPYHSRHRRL
T3 sequence (P07711 114-333): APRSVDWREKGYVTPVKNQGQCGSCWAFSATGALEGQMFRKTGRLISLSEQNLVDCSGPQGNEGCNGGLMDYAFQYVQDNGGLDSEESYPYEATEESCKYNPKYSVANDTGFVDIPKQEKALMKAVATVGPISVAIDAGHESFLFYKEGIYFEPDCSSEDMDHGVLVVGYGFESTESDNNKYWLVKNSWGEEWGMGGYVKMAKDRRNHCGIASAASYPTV

With `C[C@H]1OCC(=O)[C@]1(C)NC(=O)[C@H](Cc1ccc(O)cc1)NC(=O)c1csc(-c2cccnc2)n1` [Example 6, (2R, 3R) 2-Pyridin-3-yl-thiazole4-carboxylic acid [1-(2,3-dimethyl-4oxo-tetrahydrofuran-3-ylcarbamoyl)-2-(4-hydroxyphenyl)-ethyl]-amide] the pKi (Cruzipain) was over 5.70, the pKi (Bovine Cathepsin S) was under 4.30 and the pKi (Human Cathepsin L) was under 4.30. For the same molecule, the pKi (Human Cathepsin K) was under 4.00.
In the case of `CC(NC(=O)C(Cc1ccccc1)NC(=O)OCc1ccccc1)C(=O)CF` (stereo not drawn) [Z-Phe-Ala-FMK], the “effect on parasite replication and differentiation” value [1] is given as “blocked replication and differentiation of the parasite”.
In the case of `O=C(Cn1ccnc1[N+](=O)[O-])NCc1ccccc1` [benznidazole], the cure [2] is given as 60%.
Work on `C[C@H]1OCC(=O)[C@]1(C)NC(=O)[C@H](Cc1ccc(O)cc1)NC(=O)c1cccc2ccccc12` [Example 27, (2R, 3R) Naphthalene-1-carboxylic acid [1-(2,3-dimethyl-4-oxo-tetrahydrofuran-3-ylcarbamoyl)-2-(4-hydroxyphenyl)-ethyl]-amide] yielded a pKi (Cruzipain) of under 4.70, a pKi (Bovine Cathepsin S) of under 4.30 and a pKi (Human Cathepsin L) of over 5.30. It also gave a pKi (Human Cathepsin K) of under 4.00.
In the case of `C[C@H]1OCC(=O)[C@]1(C)NC(=O)[C@H](CC1CCCCC1)NC(=O)c1ccoc1` [Example 19, (2R, 3R) Furan-3-carboxylic acid [2-cyclohexyl-1-(2,3-dimethyl-oxo-tetrahydrofuran-3-ylcaxbamoyl)-ethyl]-amide], the pKi (Cruzipain) was under 4.30, the pKi (Bovine Cathepsin S) was over 5.70 and the pKi (Human Cathepsin L) was under 4.30. It also gave a pKi (Human Cathepsin K) of under 4.30.
